Measured values as given in US11331299B2, “Medicinal use of serrulatane diterpenes” (The University of Sydney, priority 2016, dated 2022).
Like-named read-outs stand apart in the source and are kept apart here.

What was measured:
[1] = system: IL-17A secretion from human PBMC stimulated with antiCD3/antiCD28-coated beads; test: PBMC IL-17 assay (assay number 1321); assay type: cell-based
cannabinoid CB2 (h) = cannabinoid CB2 (h) (Homo sapiens, UniProt P34972); test: Bioprint radioligand binding assay
Sequence of cannabinoid CB2 (h) (P34972 whole entry): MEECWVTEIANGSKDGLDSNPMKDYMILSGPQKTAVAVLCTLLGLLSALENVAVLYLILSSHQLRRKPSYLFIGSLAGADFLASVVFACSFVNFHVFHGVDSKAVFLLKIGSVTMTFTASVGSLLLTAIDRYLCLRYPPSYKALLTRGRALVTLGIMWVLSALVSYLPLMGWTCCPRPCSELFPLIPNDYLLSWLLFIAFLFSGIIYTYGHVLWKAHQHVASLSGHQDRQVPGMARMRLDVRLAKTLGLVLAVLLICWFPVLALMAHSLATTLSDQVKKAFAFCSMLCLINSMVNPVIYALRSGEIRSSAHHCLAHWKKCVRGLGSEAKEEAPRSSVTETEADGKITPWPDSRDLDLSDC

[2] = system: Toll-like receptor 4 (TLR4) activation on human peripheral blood mononuclear cells (PBMC's); test: TLR4 inhibition assay, LPS-induced cytokine release; assay type: cell-based; details: for IC50: Homo sapiens, PBMC, 24 h, 24-hour LPS stimulation
[3] = system: primary human keratinocytes; test: Keratinocyte cell viability, IL-8 assay (assay number 1244); assay type: cell-based; details: Homo sapiens, Keratinocyte; read-out: Inhibition of cell viability, Rel EC50
[4] = as above; assay type: cell-based, human; details: human, primary human keratinocytes induced with IL-17A and TNFα; read-out: Inhibition of cell viability, Max Effect
PPARgamma (h) = PPARgamma (h) (Homo sapiens, UniProt P37231); test: Bioprint radioligand binding assay
Sequence of PPARgamma (h) (P37231 whole entry): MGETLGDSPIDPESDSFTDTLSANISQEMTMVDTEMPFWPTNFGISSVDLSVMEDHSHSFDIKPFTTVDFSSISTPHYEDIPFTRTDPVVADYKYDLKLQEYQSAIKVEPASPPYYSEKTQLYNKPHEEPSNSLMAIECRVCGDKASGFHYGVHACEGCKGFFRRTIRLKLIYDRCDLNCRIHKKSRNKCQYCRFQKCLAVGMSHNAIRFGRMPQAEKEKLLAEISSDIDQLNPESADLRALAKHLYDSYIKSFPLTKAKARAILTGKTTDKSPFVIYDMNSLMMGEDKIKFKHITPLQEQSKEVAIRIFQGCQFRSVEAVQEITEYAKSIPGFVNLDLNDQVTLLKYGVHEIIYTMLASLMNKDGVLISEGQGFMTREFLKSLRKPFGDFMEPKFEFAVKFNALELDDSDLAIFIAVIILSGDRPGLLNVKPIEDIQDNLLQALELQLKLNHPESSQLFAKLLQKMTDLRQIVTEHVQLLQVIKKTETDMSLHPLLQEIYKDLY

adrenergic alpha 2C (h) = adrenergic alpha 2C (h) (Homo sapiens, UniProt P18825); test: biochemical; assay type: binding
Sequence of adrenergic alpha 2C (h) (P18825 whole entry): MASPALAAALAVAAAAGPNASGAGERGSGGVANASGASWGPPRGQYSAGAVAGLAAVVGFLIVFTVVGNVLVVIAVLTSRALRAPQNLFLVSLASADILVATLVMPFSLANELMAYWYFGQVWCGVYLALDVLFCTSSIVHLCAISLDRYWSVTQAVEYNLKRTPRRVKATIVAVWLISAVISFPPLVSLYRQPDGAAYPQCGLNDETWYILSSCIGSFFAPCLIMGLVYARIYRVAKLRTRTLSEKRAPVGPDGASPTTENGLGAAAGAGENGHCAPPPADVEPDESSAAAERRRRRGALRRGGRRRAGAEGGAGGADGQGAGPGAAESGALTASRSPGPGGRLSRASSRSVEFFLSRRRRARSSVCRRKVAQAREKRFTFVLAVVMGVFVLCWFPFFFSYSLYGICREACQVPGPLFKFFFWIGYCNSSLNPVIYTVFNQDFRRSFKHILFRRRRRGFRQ

[5] = system: human pancreatic carcinoma MIA PaCa-2; details: for % T/C / % TGI / Tumor Volume, Mean: 100 mg/kg QWK x 3 IP
melatonin MT1 (ML1A) (h) = melatonin MT1 (ML1A) (h) (Homo sapiens, UniProt P48039); test: Bioprint radioligand binding assay
Sequence of melatonin MT1 (ML1A) (h) (P48039 whole entry): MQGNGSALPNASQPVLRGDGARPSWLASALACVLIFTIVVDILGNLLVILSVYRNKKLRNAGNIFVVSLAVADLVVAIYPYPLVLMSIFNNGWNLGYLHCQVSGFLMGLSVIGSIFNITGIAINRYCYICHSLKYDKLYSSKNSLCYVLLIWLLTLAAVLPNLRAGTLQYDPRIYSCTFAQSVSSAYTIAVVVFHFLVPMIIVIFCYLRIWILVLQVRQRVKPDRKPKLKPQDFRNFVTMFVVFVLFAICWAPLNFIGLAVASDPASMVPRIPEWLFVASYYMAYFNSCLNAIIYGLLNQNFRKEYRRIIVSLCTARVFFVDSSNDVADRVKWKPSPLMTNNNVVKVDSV

[6] = system: IL-4 secretion from human CD4-positive T-cells stimulated with antiCD2/antiCD3/antiCD28-coated beads; test: T-cell IL-4 assay; assay type: cell-based
COX2 (h) = COX2 (h) (Homo sapiens, UniProt P35354); test: Bioprint enzyme assay; assay type: biochemical
Sequence of COX2 (h) (P35354 18-604): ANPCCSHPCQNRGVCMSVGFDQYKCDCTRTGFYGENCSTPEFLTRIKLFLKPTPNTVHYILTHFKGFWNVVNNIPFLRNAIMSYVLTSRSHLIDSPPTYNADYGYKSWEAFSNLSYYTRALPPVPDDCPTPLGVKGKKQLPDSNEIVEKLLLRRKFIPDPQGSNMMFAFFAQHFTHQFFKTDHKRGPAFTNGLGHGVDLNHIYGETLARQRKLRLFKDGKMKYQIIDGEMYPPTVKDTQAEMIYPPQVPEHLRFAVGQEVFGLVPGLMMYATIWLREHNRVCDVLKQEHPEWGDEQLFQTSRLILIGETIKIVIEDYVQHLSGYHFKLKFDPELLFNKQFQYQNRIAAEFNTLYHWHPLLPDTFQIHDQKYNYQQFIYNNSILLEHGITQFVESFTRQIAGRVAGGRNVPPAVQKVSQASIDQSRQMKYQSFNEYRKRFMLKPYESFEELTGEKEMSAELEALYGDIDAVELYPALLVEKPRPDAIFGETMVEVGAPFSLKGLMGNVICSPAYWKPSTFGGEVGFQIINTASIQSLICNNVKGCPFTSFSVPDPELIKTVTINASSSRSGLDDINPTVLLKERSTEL

[7] = system: human CD4-positive T-cells; test: T-cell viability/proliferation (assay number 1299); assay type: cell-based
[8] = target: receptors (Bioprint panel) (Homo sapiens, UniProt P30411); test: biochemical; assay type: binding; details: BRADYKININ B2 (h) (agonist radioligand); 10 μM; read-out: % Inhibition of Control Specific Binding
[9] = target: receptors (Bioprint panel) (Homo sapiens, UniProt P21452); test: biochemical; assay type: binding; details: NEUROKININ NK2 (h) (agonist radioligand); 10 μM; read-out: % Inhibition of Control Specific Binding
[10] = target: receptors (Bioprint panel) (Homo sapiens, UniProt P13945); test: biochemical; assay type: binding; details: Adrenergic beta3; 10 μM; read-out: % Inhibition of Control Specific Binding
Sequence of receptors (Bioprint panel) (Homo sapiens, UniProt P13945) (P13945 whole entry): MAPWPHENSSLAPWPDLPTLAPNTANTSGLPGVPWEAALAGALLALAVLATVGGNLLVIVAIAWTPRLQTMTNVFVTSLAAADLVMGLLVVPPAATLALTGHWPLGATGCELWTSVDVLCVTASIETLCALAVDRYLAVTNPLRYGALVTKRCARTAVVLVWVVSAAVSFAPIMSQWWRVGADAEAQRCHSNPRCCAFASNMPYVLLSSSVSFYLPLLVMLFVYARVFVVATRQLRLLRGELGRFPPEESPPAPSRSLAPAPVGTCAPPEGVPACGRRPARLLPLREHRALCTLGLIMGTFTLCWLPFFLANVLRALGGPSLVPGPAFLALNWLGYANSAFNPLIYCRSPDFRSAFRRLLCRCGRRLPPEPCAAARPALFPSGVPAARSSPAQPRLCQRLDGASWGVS

[11] = target: receptors (Bioprint panel) (Homo sapiens, UniProt P03372); test: biochemical; assay type: binding; details: Estrogen ER alpha (h) (agonist radioligand); 10 μM; read-out: % Inhibition of Control Specific Binding
Sequence of receptors (Bioprint panel) (Homo sapiens, UniProt P03372) (P03372 whole entry): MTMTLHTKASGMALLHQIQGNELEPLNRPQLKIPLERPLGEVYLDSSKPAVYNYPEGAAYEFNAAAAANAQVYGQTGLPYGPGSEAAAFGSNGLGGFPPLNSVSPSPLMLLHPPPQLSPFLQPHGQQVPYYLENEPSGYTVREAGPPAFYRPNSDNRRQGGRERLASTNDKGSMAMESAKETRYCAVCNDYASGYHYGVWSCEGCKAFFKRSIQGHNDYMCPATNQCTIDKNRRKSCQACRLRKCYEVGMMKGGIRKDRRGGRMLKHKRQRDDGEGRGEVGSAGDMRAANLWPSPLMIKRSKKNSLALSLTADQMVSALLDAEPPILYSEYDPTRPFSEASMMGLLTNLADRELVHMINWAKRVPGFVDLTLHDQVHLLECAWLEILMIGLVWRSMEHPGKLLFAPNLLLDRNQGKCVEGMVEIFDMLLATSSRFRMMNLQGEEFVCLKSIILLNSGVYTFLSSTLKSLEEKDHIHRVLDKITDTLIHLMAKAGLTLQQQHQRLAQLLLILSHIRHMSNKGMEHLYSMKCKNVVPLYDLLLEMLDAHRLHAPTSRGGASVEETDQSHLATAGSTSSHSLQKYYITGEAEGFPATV

[12] = target: receptors (Bioprint panel) (Mus musculus, UniProt Q01727); test: biochemical; assay type: binding; details: MELANOCORTIN MC1 (agonist radioligand); 10 μM; read-out: % Inhibition of Control Specific Binding
Sequence of receptors (Bioprint panel) (Mus musculus, UniProt Q01727) (Q01727 whole entry): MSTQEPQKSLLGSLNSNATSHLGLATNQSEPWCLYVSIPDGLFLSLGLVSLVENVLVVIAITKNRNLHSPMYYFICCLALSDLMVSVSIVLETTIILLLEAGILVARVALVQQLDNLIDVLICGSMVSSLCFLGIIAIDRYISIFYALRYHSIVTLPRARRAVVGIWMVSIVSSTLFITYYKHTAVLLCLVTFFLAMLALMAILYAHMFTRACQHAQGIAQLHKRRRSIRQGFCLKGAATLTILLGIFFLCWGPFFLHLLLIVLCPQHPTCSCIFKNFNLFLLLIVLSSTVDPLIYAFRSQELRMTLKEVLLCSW

[13] = target: receptors (Bioprint panel) (Homo sapiens, UniProt P32247); test: biochemical; assay type: binding; details: BOMBESIN BB3 (h) (agonist radioligand); 10 μM; read-out: % Inhibition of Control Specific Binding
[14] = target: receptors (Bioprint panel) (Homo sapiens, UniProt P25103); test: biochemical; assay type: binding; details: NEUROKININ NK1 (h) (agonist radioligand); 10 μM; read-out: % Inhibition of Control Specific Binding
Sequence of receptors (Bioprint panel) (Homo sapiens, UniProt P25103) (P25103 whole entry): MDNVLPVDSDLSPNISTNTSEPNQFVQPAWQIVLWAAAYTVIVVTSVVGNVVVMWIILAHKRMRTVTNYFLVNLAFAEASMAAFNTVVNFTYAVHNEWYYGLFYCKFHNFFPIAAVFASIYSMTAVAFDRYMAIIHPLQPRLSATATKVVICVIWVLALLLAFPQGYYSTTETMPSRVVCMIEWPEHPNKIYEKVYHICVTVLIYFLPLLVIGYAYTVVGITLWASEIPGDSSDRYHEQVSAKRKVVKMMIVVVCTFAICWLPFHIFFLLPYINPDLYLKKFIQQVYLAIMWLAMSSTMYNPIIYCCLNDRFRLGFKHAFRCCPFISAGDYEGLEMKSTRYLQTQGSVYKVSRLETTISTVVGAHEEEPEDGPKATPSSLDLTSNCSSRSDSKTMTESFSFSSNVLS

PRMT3 (h) = PRMT3 (h) (Homo sapiens, UniProt O60678); details: read-out: Reference: (IC50 not given); cited from earlier work
Sequence of PRMT3 (h) (O60678 whole entry): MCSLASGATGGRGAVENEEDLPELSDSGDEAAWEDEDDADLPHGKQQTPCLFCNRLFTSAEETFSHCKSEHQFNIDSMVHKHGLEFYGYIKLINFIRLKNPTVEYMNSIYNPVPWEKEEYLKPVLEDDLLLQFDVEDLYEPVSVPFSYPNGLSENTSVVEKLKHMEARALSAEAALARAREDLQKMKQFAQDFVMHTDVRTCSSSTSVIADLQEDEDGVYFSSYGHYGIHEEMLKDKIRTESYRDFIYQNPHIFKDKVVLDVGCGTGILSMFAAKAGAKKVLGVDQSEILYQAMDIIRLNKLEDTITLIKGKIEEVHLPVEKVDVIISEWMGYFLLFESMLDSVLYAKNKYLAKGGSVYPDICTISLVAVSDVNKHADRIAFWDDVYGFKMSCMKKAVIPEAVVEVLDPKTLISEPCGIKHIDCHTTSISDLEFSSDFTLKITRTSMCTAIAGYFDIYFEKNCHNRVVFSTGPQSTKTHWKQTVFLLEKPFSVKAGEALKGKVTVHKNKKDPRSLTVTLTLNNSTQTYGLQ

ASH1L = ASH1L (Homo sapiens, UniProt Q9NR48); details: read-out: Reference: IC50; cited from earlier work
PRDM9 (h) = PRDM9 (h) (Homo sapiens, UniProt Q9NQV7); details: read-out: Reference: (IC50 not given); cited from earlier work
SUV39H2 (h) = SUV39H2 (h) (Homo sapiens, UniProt Q9H5I1); details: read-out: Reference: (IC50 not given); cited from earlier work
Sequence of SUV39H2 (h) (Q9H5I1 whole entry): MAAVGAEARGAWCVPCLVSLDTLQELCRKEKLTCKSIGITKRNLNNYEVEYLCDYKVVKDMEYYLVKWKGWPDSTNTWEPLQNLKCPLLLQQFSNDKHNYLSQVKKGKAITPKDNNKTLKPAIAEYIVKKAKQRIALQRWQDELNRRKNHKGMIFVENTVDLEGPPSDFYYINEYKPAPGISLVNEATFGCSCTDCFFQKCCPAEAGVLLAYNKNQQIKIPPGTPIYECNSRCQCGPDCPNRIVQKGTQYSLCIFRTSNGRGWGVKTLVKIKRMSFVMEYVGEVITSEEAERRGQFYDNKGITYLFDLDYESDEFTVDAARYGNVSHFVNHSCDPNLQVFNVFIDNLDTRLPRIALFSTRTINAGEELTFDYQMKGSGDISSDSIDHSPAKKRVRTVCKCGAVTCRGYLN

MLL2(h) complex = details: read-out: Reference: (IC50 not given); cited from earlier work
MLL4(h) complex = details: read-out: Reference: (IC50 not given); cited from earlier work
[15] = read-out: % inhibition of control specific binding

In the case of CC(C)=CCC[C@H](CO)[C@@H]1CC[C@@H](C)c2c1cc(C)c(O)c2O [Compound 1, 7,8,18-trihydroxyserrulat-14-ene], the Emax ([1]; read-out: Inhibition of IL-17A release, Max Effect) is reported as 100%, the EC50 ([1]; read-out: Inhibition of IL-17A release, Rel EC50) is reported as 0.32 µM and the inhibition at 10 µM (cannabinoid CB2 (h); CANNABINOID CB2 (h) (agonist radioligand), read-out: % Inhibition of Control Specific Binding) is reported as 71%. It also gave an inhibition at 10 µM (cannabinoid CB2 (h); [15]) of 71%, an IC50 ([2]; read-out: IC50, LPS-induced IL-1β release) of 6.6 µM and an IC50 ([2]; read-out: IC50, LPS-induced IL-6 release) of 8.8 µM. It also gave an IC50 ([2]; read-out: IC50, LPS-induced IL-10 release) of 4.3 µM, an IC50 ([2]; read-out: IC50, LPS-induced TNFα release) of 8.9 µM and an IC50 ([2]; I-1β, human PBMC, read-out: LPS-induced cytokine IC50) of 6.6 µM. For the same compound, the IC50 ([2]; IL-6, human PBMC, read-out: LPS-induced cytokine IC50) was 8.8 µM, the IC50 ([2]; IL-10, human PBMC, read-out: LPS-induced cytokine IC50) was 4.3 µM and the IC50 ([2]; TNF-α, human PBMC, read-out: LPS-induced cytokine IC50) was 8.9 µM. The “inhibition of the secretion of all cytokines” value ([2]; top test concentration) was “moderate to strong inhibition”, the EC50 [3] was 0.246 µM and the cytotoxicity [4] was 101%. For the same compound, the inhibition at 10 µM (PPARgamma (h); PPARgamma (h) (agonist radioligand), read-out: % Inhibition of Control Specific Binding) was 91%, the inhibition at 10 µM (PPARgamma (h); [15]) was 91% and the inhibition at 10 µM (adrenergic alpha 2C (h); […] alpha 2C (h) (antagonist radioligand), read-out: % Inhibition of Control Specific Binding) was 92%. The inhibition at 10 µM (adrenergic alpha 2C (h); [15]) was 92%, the “% T/C” value ([5]; Day 1) was 100% and the “% TGI” value ([5]; Day 1) was 0%. For the same compound, the “Tumor Volume, Mean” value ([5]; Day 1) was 90 mm3, the “% T/C” value ([5]; Day 4) was 96% and the “% TGI” value ([5]; Day 4) was 4%. The “Tumor Volume, Mean” value ([5]; Day 4) was 90 mm3, the “% T/C” value ([5]; Day 8) was 101% and the “% TGI” value ([5]; Day 8) was −1%. The “Tumor Volume, Mean” value ([5]; Day 8) was 133 mm3, the “% T/C” value ([5]; Day 11) was 107% and the “% TGI” value ([5]; Day 11) was −7%. For the same compound, the “Tumor Volume, Mean” value ([5]; Day 11) was 211 mm3, the “% T/C” value ([5]; Day 15) was 92% and the “% TGI” value ([5]; Day 15) was 8%. The “Tumor Volume, Mean” value ([5]; Day 15) was 345 mm3, the anti-cancer activity ([5]; in combination with gemcitabine) was “effective in combination with gemcitabine” and the inhibition at 10 µM (melatonin MT1 (ML1A) (h); 10 μM, read-out: % inhibition of control specific binding) was 91%. For the same compound, the inhibition at 10 µM (melatonin MT1 (ML1A) (h); read-out: % Inhibition of Control Specific Binding) was 91%, the Emax ([6]; read-out: Inhibition of IL-4 release, Max Effect) was 100% and the EC50 ([6]; read-out: Inhibition of IL-4 release, Rel EC50) was 0.523 µM. The inhibition at 10 µM (COX2 (h); COX2(h), read-out: % Inhibition of Control Values) was 74%, the inhibition at 10 µM (COX2 (h); read-out: % inhibition of control enzyme activity) was 74% and the Emax ([7]; read-out: Inhibition of cell proliferation, Max Effect) was 123%. The EC50 ([7]; read-out: Inhibition of cell proliferation, Rel EC50) was 0.587 µM, the inhibition at 10 µM [8] was -37% and the inhibition at 10 µM [9] was 52%. For the same compound, the inhibition at 10 µM [10] was 33%, the inhibition at 10 µM [11] was 40% and the inhibition at 10 µM [12] was 11%. The inhibition at 10 µM [13] was 26% and the inhibition at 10 µM [14] was 62%.

In the case of Nc1ncnc2c1ncn2[C@@H]1O[C@H](CSCC[C@H](N)C(=O)O)[C@@H](O)[C@H]1O [SAH], the IC50 (PRMT3 (h)) is given as 0.86 µM, the IC50 (ASH1L) is given as 9.1 µM and the IC50 (PRDM9 (h)) is given as 370 µM. For the same compound, the IC50 (SUV39H2 (h)) was 24 µM, the IC50 (MLL2(h) complex) was 0.97 µM and the IC50 (MLL4(h) complex) was 0.97 µM.
